Results reported in the supplement of paper PMC10307832.

Assays:
Experiment in all cases: relative viability (nuclei count vs DMSO), 5 days (fraction); higher = more cells survive
COR-L 105 = test system: COR-L 105
Method in brief: (§1)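 Dosing by pin tool came one day after lung cancer cell lines were seeded in 1536-well plates, using either one drug or a fixed anchor-drug dose plus five library-drug doses (not always all listed) in √10 steps. After 5 days, nuclei were counted on 4× images. Relative viability is treated-well nuclei count divided by vehicle-well nuclei count, and values are medians of duplicate plates.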

EKVX = test system: EKVX
Method in brief: as §1

NCI-H1666 = test system: NCI-H1666
Method in brief: as §1

HCC-827 = test system: HCC-827
Method in brief: as §1

NCI-H2085 = test system: NCI-H2085
Method in brief: as §1

HCC-44 = test system: HCC-44
Method in brief: as §1

H3255 = test system: H3255
Method in brief: as §1

NCI-H2087 = test system: NCI-H2087
Method in brief: as §1

LCLC-97TM1 = test system: LCLC-97TM1
Method in brief: as §1

NCI-H2342 = test system: NCI-H2342
Method in brief: as §1

EPLC-272H = test system: EPLC-272H
Method in brief: as §1

LOU-NH91 = test system: LOU-NH91
Method in brief: as §1

NCI-H2170 = test system: NCI-H2170
Method in brief: as §1

NCI-H1975 = test system: NCI-H1975
Method in brief: as §1

NCI-H1437 = test system: NCI-H1437
Method in brief: as §1

LU99A = test system: LU99A
Method in brief: as §1

SW 1573 = test system: SW 1573
Method in brief: as §1

NCI-H647 = test system: NCI-H647
Method in brief: as §1

BEN = test system: BEN
Method in brief: as §1

NCI-H650 = test system: NCI-H650
Method in brief: as §1

PC-3 [JPC-3] = test system: PC-3 [JPC-3]
Method in brief: as §1

201T = test system: 201T
Method in brief: as §1

COc1cc2nccc(Oc3ccc(NC(=O)Nc4cc(C)on4)c(Cl)c3)c2cc1OC [Tivozanib] + Nc1nc2[nH]cc(CCc3ccc(C(=O)N[C@@H](CCC(=O)O)C(=O)O)cc3)c2c(=O)[nH]1 [Pemetrexed] (partner 0.2 µM)
relative viability (COR-L 105; first compound 0.005 µM): 0.919 | relative viability (COR-L 105; first compound 0.01581 µM): 1.08 | relative viability (COR-L 105; first compound 0.05 µM): 1.34 | relative viability (COR-L 105; first compound 0.1581 µM): 1.13 | relative viability (COR-L 105; first compound 0.5 µM): 1.27 | relative viability (EKVX; first compound 0.005 µM): 0.377 | relative viability (EKVX; first compound 0.01581 µM): 0.408 | relative viability (EKVX; first compound 0.05 µM): 0.394 | relative viability (EKVX; first compound 0.1581 µM): 0.432 | relative viability (EKVX; first compound 0.5 µM): 0.355 | relative viability (NCI-H1666; first compound 0.005 µM): 0.829 | relative viability (NCI-H1666; first compound 0.01581 µM): 0.877 | relative viability (NCI-H1666; first compound 0.05 µM): 0.932 | relative viability (NCI-H1666; first compound 0.1581 µM): 0.797 | relative viability (NCI-H1666; first compound 0.5 µM): 0.75 | relative viability (HCC-827; first compound 0.005 µM): 0.266 | relative viability (HCC-827; first compound 0.01581 µM): 0.255 | relative viability (HCC-827; first compound 0.05 µM): 0.242 | relative viability (HCC-827; first compound 0.1581 µM): 0.259 | relative viability (HCC-827; first compound 0.5 µM): 0.253 | relative viability (NCI-H2085; first compound 0.005 µM): 0.925 | relative viability (NCI-H2085; first compound 0.01581 µM): 0.964 | relative viability (NCI-H2085; first compound 0.05 µM): 0.872 | relative viability (NCI-H2085; first compound 0.1581 µM): 0.9 | relative viability (NCI-H2085; first compound 0.5 µM): 0.899 | relative viability (HCC-44; first compound 0.005 µM): 0.651 | relative viability (HCC-44; first compound 0.01581 µM): 0.62 | relative viability (HCC-44; first compound 0.05 µM): 0.687 | relative viability (HCC-44; first compound 0.1581 µM): 0.802 | relative viability (HCC-44; first compound 0.5 µM): 0.627 | relative viability (H3255; first compound 0.005 µM): 0.545 | relative viability (H3255; first compound 0.01581 µM): 0.563 | relative viability (H3255; first compound 0.05 µM): 0.583 | relative viability (H3255; first compound 0.1581 µM): 0.55 | relative viability (H3255; first compound 0.5 µM): 0.547 | relative viability (NCI-H2087; first compound 0.005 µM): 0.654 | relative viability (NCI-H2087; first compound 0.01581 µM): 0.696 | relative viability (NCI-H2087; first compound 0.05 µM): 0.66 | relative viability (NCI-H2087; first compound 0.1581 µM): 0.7 | relative viability (NCI-H2087; first compound 0.5 µM): 0.653 | relative viability (LCLC-97TM1; first compound 0.005 µM): 0.183 | relative viability (LCLC-97TM1; first compound 0.01581 µM): 0.178 | relative viability (LCLC-97TM1; first compound 0.05 µM): 0.157 | relative viability (LCLC-97TM1; first compound 0.1581 µM): 0.172 | relative viability (LCLC-97TM1; first compound 0.5 µM): 0.148 | relative viability (NCI-H2342; first compound 0.005 µM): 0.753 | relative viability (NCI-H2342; first compound 0.01581 µM): 0.754 | relative viability (NCI-H2342; first compound 0.05 µM): 0.802 | relative viability (NCI-H2342; first compound 0.5 µM): 0.757 | relative viability (EPLC-272H; first compound 0.005 µM): 0.337 | relative viability (EPLC-272H; first compound 0.01581 µM): 0.317 | relative viability (EPLC-272H; first compound 0.05 µM): 0.335 | relative viability (EPLC-272H; first compound 0.1581 µM): 0.284 | relative viability (EPLC-272H; first compound 0.5 µM): 0.288 | relative viability (LOU-NH91; first compound 0.005 µM): 0.341 | relative viability (LOU-NH91; first compound 0.01581 µM): 0.364 | relative viability (LOU-NH91; first compound 0.05 µM): 0.371 | relative viability (LOU-NH91; first compound 0.1581 µM): 0.525 | relative viability (LOU-NH91; first compound 0.5 µM): 0.338 | relative viability (NCI-H2170; first compound 0.005 µM): 0.24 | relative viability (NCI-H2170; first compound 0.01581 µM): 0.262 | relative viability (NCI-H2170; first compound 0.05 µM): 0.56 | relative viability (NCI-H2170; first compound 0.5 µM): 0.255 | relative viability (NCI-H1975; first compound 0.005 µM): 0.271 | relative viability (NCI-H1975; first compound 0.01581 µM): 0.285 | relative viability (NCI-H1975; first compound 0.05 µM): 0.283 | relative viability (NCI-H1975; first compound 0.1581 µM): 0.332 | relative viability (NCI-H1975; first compound 0.5 µM): 0.294 | relative viability (NCI-H1437; first compound 0.005 µM): 0.251 | relative viability (NCI-H1437; first compound 0.01581 µM): 0.287 | relative viability (NCI-H1437; first compound 0.05 µM): 0.366 | relative viability (NCI-H1437; first compound 0.1581 µM): 0.313 | relative viability (NCI-H1437; first compound 0.5 µM): 0.31 | relative viability (LU99A; first compound 0.005 µM): 0.161 | relative viability (LU99A; first compound 0.01581 µM): 0.176 | relative viability (LU99A; first compound 0.05 µM): 0.19 | relative viability (LU99A; first compound 0.1581 µM): 0.22 | relative viability (LU99A; first compound 0.5 µM): 0.193 | relative viability (SW 1573; first compound 0.005 µM): 0.761 | relative viability (SW 1573; first compound 0.01581 µM): 0.766 | relative viability (SW 1573; first compound 0.05 µM): 0.805 | relative viability (SW 1573; first compound 0.1581 µM): 0.666 | relative viability (SW 1573; first compound 0.5 µM): 0.775 | relative viability (NCI-H647; first compound 0.005 µM): 0.155 | relative viability (NCI-H647; first compound 0.01581 µM): 0.207 | relative viability (NCI-H647; first compound 0.05 µM): 0.152 | relative viability (NCI-H647; first compound 0.1581 µM): 0.189 | relative viability (NCI-H647; first compound 0.5 µM): 0.149 | relative viability (BEN; first compound 0.005 µM): 0.647 | relative viability (BEN; first compound 0.01581 µM): 0.858 | relative viability (BEN; first compound 0.05 µM): 0.834 | relative viability (BEN; first compound 0.1581 µM): 0.397 | relative viability (BEN; first compound 0.5 µM): 0.689 | relative viability (NCI-H650; first compound 0.005 µM): 0.892 | relative viability (NCI-H650; first compound 0.01581 µM): 0.98 | relative viability (NCI-H650; first compound 0.05 µM): 0.879 | relative viability (NCI-H650; first compound 0.1581 µM): 0.679 | relative viability (NCI-H650; first compound 0.5 µM): 0.734 | relative viability (PC-3 [JPC-3]; first compound 0.01581 µM): 1.09 | relative viability (PC-3 [JPC-3]; first compound 0.05 µM): 1.09 | relative viability (PC-3 [JPC-3]; first compound 0.1581 µM): 1.06 | relative viability (PC-3 [JPC-3]; first compound 0.5 µM): 0.936 | relative viability (201T; first compound 0.005 µM): 0.314 | relative viability (201T; first compound 0.01581 µM): 0.319 | relative viability (201T; first compound 0.05 µM): 0.351 | relative viability (201T; first compound 0.1581 µM): 0.351 | relative viability (201T; first compound 0.5 µM): 0.367
